Consider 13 compounds from US20120142705A1, “ISATIN AND OXINDOLE COMPOUNDS” (priority 2010, published 2012).

Structures are written as SMILES.

The term fold induction denotes the ratio of treated to control signal.

For the first experiment, the target named is T1, Recombinant human liver GK1 (GST-GK) (Homo sapiens, UniProt P35557).
T1 construct: made in house; host or cells: E. coli
T1 sequence (P35557 1-466 isoform P35557-2): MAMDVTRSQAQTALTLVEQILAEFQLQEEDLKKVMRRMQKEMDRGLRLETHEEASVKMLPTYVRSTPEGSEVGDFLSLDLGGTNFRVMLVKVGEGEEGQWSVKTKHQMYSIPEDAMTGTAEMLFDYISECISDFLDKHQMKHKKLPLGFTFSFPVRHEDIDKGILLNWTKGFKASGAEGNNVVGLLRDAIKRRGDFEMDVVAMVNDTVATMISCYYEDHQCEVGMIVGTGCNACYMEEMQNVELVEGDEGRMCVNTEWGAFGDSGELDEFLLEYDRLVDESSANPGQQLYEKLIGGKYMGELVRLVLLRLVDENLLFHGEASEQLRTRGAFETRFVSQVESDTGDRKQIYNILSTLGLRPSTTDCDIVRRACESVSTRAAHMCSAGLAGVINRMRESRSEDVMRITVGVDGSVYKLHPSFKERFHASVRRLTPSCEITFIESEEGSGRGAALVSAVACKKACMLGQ
The experiment in a line: In vitro glucokinase activity, G6PDH-coupled spectrophotometric assay. The experiment is classed as biochemical. Particulars: 5 mM D-glucose, 30° C., pH 7.1. In short, it runs like this: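 GST-fused human liver GK1 from E. coli, run at 30° C. in pH 7.1 HEPES with 5 mM glucose, 1 mM ATP and 10% DMSO, coupled via G6PDH to NADH. OD340 rate measured after enzyme start; SC1.5 is the activator concentration raising activity 50% over DMSO control.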
Regarding `CC(C)CC(C(=O)Nc1ccccn1)N1C(=O)Cc2cc(OC(F)(F)F)ccc21` (stereo not shown) [Example 43, 4-Methyl-2-(2-oxo-5-trifluoromethoxy-2,3-dihydro-indol-1-yl)-pentanoic acid pyridin-2-ylamide], the “SC1.5 (concentration of activator that produced a 50% increase in the activity of GK)” value came out at 1.41 µM.
Consider `O=C1C(=O)N(C(CC2CCCC2)C(=O)Nc2ccn(C[C@@H](O)CO)n2)c2ccc(Cl)cc21` (stereo partly drawn) [Example 93, 2-(5-Chloro-2,3-dioxo-2,3-dihydro-indol-1-yl)-3-cyclopentyl-N-[1-((R)-2,3-dihydroxy-propyl)-1H-pyrazol-3-yl]-propionamide], for which the “SC1.5 (concentration of activator that produced a 50% increase in the activity of GK)” value was determined as 3.36 µM.
`CC(C)CC(C(=O)Nc1nccs1)N1C(=O)C(=O)c2cc(OC(F)(F)F)ccc21` (stereo not shown) [Example 40, 2-(2,3-Dioxo-5-trifluoromethoxy-2,3-dihydro-indol-1-yl)-4-methyl-pentanoic acid thiazol-2-ylamide]: the “SC1.5 (concentration of activator that produced a 50% increase in the activity of GK)” value is 5.97 µM.
Take `Cc1ccc2c(c1)C(=O)C(=O)N2C(CC1CCCC1)C(=O)Nc1ccn(C)n1` (stereo not shown) [Example 78, 3-Cyclopentyl-2-(5-methyl-2,3-dioxo-2,3-dihydro-indol-1-yl)-N-(1-methyl-1H-pyrazol-3-yl)-propionamide]: the “SC1.5 (concentration of activator that produced a 50% increase in the activity of GK)” value was found to be 29.38 µM.
On to `COc1ccc2c(c1)C(=O)C(=O)N2C(CC1CCCC1)C(=O)Nc1nccs1` (stereo not shown) [Example 48, 3-Cyclopentyl-2-(5-methoxy-2,3-dioxo-2,3-dihydro-indol-1-yl)-N-thiazol-2-yl-propionamide], for which the “SC1.5 (concentration of activator that produced a 50% increase in the activity of GK)” value was determined as 5.48 µM.
With `CC(C)CC(C(=O)Nc1ccccn1)N1C(=O)C(=O)c2cc(Cl)ccc21` (stereo not shown) [Example 102, 2-(5-Chloro-2,3-dioxo-2,3-dihydro-indol-1-yl)-4-methyl-pentanoic acid pyridin-2-ylamide], the “SC1.5 (concentration of activator that produced a 50% increase in the activity of GK)” value is 16.89 µM.
Still for that read-out and setting: for `Cc1ccc2c(c1)CC(=O)N2C(CC1CCCC1)C(=O)Nc1cnccn1` (stereo not shown) [Example 83, 3-Cyclopentyl-2-(5-methyl-2-oxo-2,3-dihydro-indol-1-yl)-N-pyrazin-2-yl-propionamide] the value was 4.47 µM; for `CC(C)CC(C(=O)Nc1nccs1)N1C(=O)Cc2cc(Cl)ccc21` (stereo not shown) [Example 105, 2-(5-Chloro-2-oxo-2,3-dihydro-indol-1-yl)-4-methyl-pentanoic acid thiazol-2-ylamide], 6.74 µM.
Same read-out and setting: the same measure for `COc1ccc2c(c1)CC(=O)N2C(CC(C)C)C(=O)Nc1ccccn1` (stereo not shown) [Example 57, 2-(5-Methoxy-2-oxo-2,3-dihydro-indol-1-yl)-4-methyl-pentanoic acid pyridin-2-ylamide]: 13.89 µM; for `O=C(Nc1nccs1)C(CC1CCCC1)N1C(=O)Cc2ccc(F)cc21` (stereo not shown) [Example 125, 3-Cyclopentyl-2-(6-fluoro-2-oxo-2,3-dihydro-indol-1-yl)-N-thiazol-2-yl-propionamide]: 0.45 µM.
Still for that read-out and setting: the same measure for `O=C(Nc1cnccn1)C(CC1CCCC1)N1C(=O)Cc2ccc(Cl)cc21` (stereo not shown) [Example 121, 2-(6-Chloro-2-oxo-2,3-dihydro-indol-1-yl)-3-cyclopentyl-N-pyrazin-2-yl-propionamide]: 0.38 µM; for `Cn1ccc(NC(=O)C(CC2CCCC2)N2C(=O)C(=O)c3cc(Cl)ccc32)n1` (stereo not shown) [Example 95, 2-(5-Chloro-2,3-dioxo-2,3-dihydro-indol-1-yl)-3-cyclopentyl-N-(1-methyl-1H-pyrazol-3-yl)-propionamide]: 7.27 µM.

Still in this experiment, the particulars now being: @ 30 uM; 5 mM D-glucose, 30° C.
For the compound `CC(C)CC(C(=O)Nc1nccs1)N1C(=O)C(=O)c2cc(Br)ccc21` (stereo not shown) [Example 71, 2-(5-Bromo-2,3-dioxo-2,3-dihydro-indol-1-yl)-4-methyl-pentanoic acid thiazol-2-ylamide], the fold induction at 30 µM turned out to be 1.5.
